A short description of one data set: in vitro. It counts as cell-based. The following applies: human. The protocol:
(§1) Black 96-well clear-bottom microtiter plates (Corning, Amsterdam, The Netherlands) were filled in duplicate using a customized robot system with serial 4-fold dilutions of compound in a final volume of 50 μl culture medium [RPMI medium without phenol red, 10% FBS, 0.04% gentamycin (50 mg/ml) and 0.5% DMSO]. Then, 100 μl of a HeLa cell suspension (5×10^4 cells/ml) in culture medium was added to each well followed by the addition of 50 μl rgRSV224 (MOI=0.02) virus in culture medium using a multidrop dispenser (Thermo Scientific, Erembodegem, Belgium). rgRSV224 virus is an engineered virus that includes an additional GFP gene (Hallak et al, 2000) and was in-licensed from the NIH (Bethesda, Md., USA). Medium, virus- and mock-infected controls were included in each test. Cells were incubated at 37° C. in a 5% CO2 atmosphere. Three days post-virus exposure, viral replication was quantified by measuring GFP expression in the cells by a MSM laser microscope (Tibotec, Beerse, Belgium). The EC50 was defined as the 50% inhibitory concentration for GFP expression. In parallel, compounds were incubated for three days in a set of white 96-well microtitier plates (Corning) and the cytotoxicity of compounds in HeLa cells was determined by measuring the ATP content of the cells using the ATPlite kit (PerkinElmer, Zaventem, Belgium) according to the manufacturer's instructions. The CC50 was defined as the 50% concentration for cytotoxicity.

The next data set relates to rgRSV224 virus. The data set is described as follows: Antiviral activity: rgRSV224 (GFP-expressing RSV) replication in HeLa cells, GFP expression readout. In kind it is cell-based. The following applies: human respiratory syncytial virus, 72 h, read-out: WT activity EC50. As for the experimental part:
as §1

Where only a bound is given, the exact number is not on record here.

This passage reports CC50 and EC50 results from US10501445B2, “Quinoxalinones and dihydroquinoxalinones as respiratory syncytial virus antiviral agents” (JANSSEN SCIENCES IRELAND UC, priority 2013, dated 2019).

`O=c1cnc2ccc(-c3ccc(CCN4CCOCC4)cc3)cc2n1Cc1nc2cc(F)ccc2n1CCCCF` [Compound P2, 1-((5-fluoro-1-(4-fluorobutyl)-1H-benzo[d]imidazol-2-yl)methyl)-7-(4-(2-morpholinoethyl)phenyl)quinoxalin-2(1H)-one]: the CC50 at 3 days in “in vitro” was found to be 94 µM. For the same compound, the EC50 in the data set on rgRSV224 virus is above 10.1 µM.

Consider `O=c1cnc2ccc(-c3ccccc3)cc2n1Cc1nc2cc(F)ccc2n1CCCCF` [Compound P6, 1-((5-fluoro-1-(4-fluorobutyl)-1H-benzo[d]imidazol-2-yl)methyl)-7-phenylquinoxalin-2(1H)-one], for which half-maximal cytotoxicity in the data set “in vitro” (CC50 at 3 days) was put at 42.8 µM. In addition, in the data set with rgRSV224 virus, the EC50 came out at 3.94 µM.

As usually defined, the CC50 is the concentration that lowers cell viability or growth by half. Broadly, the EC50 is the concentration needed to bring the measured effect to its halfway point.
